Patent US9594084B2, “Phosphorylation of histones and uses thereof” (H. LEE MOFFITT CANCER CENTER AND RESEARCH INSTITUTE, priority 2012, dated 2017)

Assays:
[1] = system: core histone genes located in Hist1 cluster; experiment: qRT-PCR of histone genes (8-histone gene signature) in synchronized cells; type: cell-based; settings: MK1775 0.6 uM, 14 hr, 8.30 hours post-release
Method: FIG. 33a-33h show a 8-histone gene signature. a-h, Synchronized cells treated with WEE1 inhibitor, MK1775 (0.6 uM, 14 hr) were harvested at indicated time points post-release. Total RNA was prepared followed by quantitative RT-PCR for 8 histone genes.
Human cells have 55 distinct histone genes each encoding a fraction of core histones. This study determined histone levels using 20 of these genes. In untreated cells, rapid decrease in transcripts of all of these histone genes was observed when RNA levels of 6.30 hours post-release samples (late S phase) were compared with 8.30 hours post-release (G2/M phase) samples (FIGS. 33a-33h).
Based on extensive transcriptional profiling of 20 histone genes, this study identified 8 genes (H2Bm, H2bn, H2Bl, H3 h, H4j, H2Ai, H2Ak and H2Bk) as being representative of global histone transcriptional output, termed as the 8-histone gene signature.

[2] = system: pY37-H2B epigenetic marks within IDH2; experiment: Directed ChIP-PCR of pY37-H2B marks in IDH2 coding region, synchronized MEFs; type: cell-based, mouse
[3] = system: core histone genes located in Hist1 cluster; experiment: Quantitative RT-PCR of core histone transcripts in synchronized MEFs; type: cell-based, mouse; settings: MK1775 0.625 μM, 14 hr, after 6.30 hours post-release (compare 8.30 hours)
[4] = system: pY37-H2B marks within IDH2; experiment: ChIP-qPCR of pY37-H2B marks within IDH2 in GBM derived cell lines; type: cell-based, human; settings: U87
Source text: FIG. 44a-44f show H2B Tyr37-phosphorylation marks are deposited within IDH2.
To validate the role of WEE1 in IDH2 marking, chromatin from GBM derived cell line U87 was immunoprecipitated using the pY37-H2B antibody followed by qPCR. […] Similar data was obtained with another human GBM derived cell lines T98G (FIG. 44E).

[5] = system: WEE1 expressing cancer cell lines; settings: cited from earlier work
[6] = system: NPAT and RNA polymerase II at Site II; experiment: ChIP-qPCR with NPAT or RNA Pol II antibodies at Site II in synchronized MEFs; type: cell-based, mouse; settings: 6.30 hours post-release
Method: FIG. 3B-3F are graphs showing histone RNA (relative to actin) in wildtype (WT) and Y40A mutant yeast cells treated with α-factor for 3 hours, washed and harvested at indicated time points post-release. Total RNA was prepared followed by qRT-PCR for histones transcripts. FACS analysis of yeast cells was performed to determine exit of cells from […] (0 minutes) and entry into cell cycle. Data are representative of three independent experiments. The p values for 30 minutes are as follows: #p=0.024; ##p=0.008; ###p=0.0083; ####p=0.037. FIG. 3G to 3H are graphs showing ChIP (% input DNA) in synchronized MEFs treated with WEE1 inhibitor or untreated and harvested 6.30 hours post-release. ChIP was performed using NPAT and IgG antibodies (FIG. 3G) or RNA Pol II and IgG (FIG. 3H) followed by qPCR using primers corresponding to Site II. *p=0.0018, **p=0.01. FIG. 3I is an immunoblot showing total histones prepared from synchronized WT (first three columns) and Y40A mutant yeast cells (last three columns) 0, 20, and 30 minutes post release that were immunoprecipitated with pTyr37-H2B antibodies and immunoblotted with yeast H2B antibodies (upper panel) or yeast tubulin antibodies (bottom panel). […]
To understand the potential mechanism of repression of histone transcription the role of NPAT was assessed. […]

[7] = system: cancers and cancer cell lines; settings: cited from earlier work

## C=CCn1c(=O)c2cnc(Nc3ccc(N4CCN(C)CC4)cc3)nc2n1-c1cccc(C(C)(C)O)n1 [MK-1775]
[1]
  histone mRNA levels: did not decrease
[2]
  deposition of pY37-H2B epigenetic marks in the IDH2 coding region: abolished
[3]
  histone mRNA levels: significant increase
[4]
  pY37-H2B marks within IDH2: completely erased
[5]
  apoptosis: selectively induces apoptosis
[6]
  recruitment of NPAT at Site II: binding was detected
  recruitment of RNA polymerase II at Site II: binding was detected
[7]
  sensitization to DNA damaging agents such as gemcitabine, 5-fluorouracil: able to sensitize
